# Assays:
# [1] = tested on: Plasmodium vinckei vinckei; test: Mortality / survival and curative dose in mice infected with Plasmodium vinckei vinckei; format: in vivo; settings: oral, 4 days of treatment, compounds administered separately
# Method: On the first day of treatment (D0), one hour after infection (10^7 parasitized erythrocytes suspended in a phosphate buffered saline (0.9%)), the animal is administered, orally, as appropriate, with ferroquine, with artesunate or with a mixture of the two active ingredients. This administration is repeated on the following three days (D1 to D3) (Peter, 1987). When the two products are administered in combination, the artesunate is administered first, the ferroquine is administered second, 45 minutes later. On the fourth day, a blood smear is taken from the tail of the mouse. The sample is fixed on a plate. The number of parasitized blood cells is counted under a microscope. The parasitaemia is expressed as percentage of infected erythrocytes present in the sample on a sample of 1000 cells. Six or seven mice are used per dose.
# Each day, from day 5 after infection, the number of dead mice is counted so as to determine the percentage mortality (number of mice dead relative to the number of mice of the batch considered). The curative dose is the first dose at which all the mice of the batch survive.
# [2] = tested on: Plasmodium vinckei vinckei; test: In vivo activity in mice infected with Plasmodium vinckei vinckei: parasitaemia at D4 after 4 days of oral treatment
# Source text: Female “Swiss” mice, aged eight weeks and one day, are inoculated with parasites of Plasmodium vinckei vinckei type (Rodhain, 1952). The mice are acclimatized beforehand for two weeks. The mice are given food and drink ad libitum.
# The Plasmodium vinckei vinckei strain is maintained by weekly infection in the mouse with 10^7 parasitized erythrocytes suspended in a phosphate buffered saline (0.9%).
# This administration is repeated on the following three days (D1 to D3) (Peter, 1987). When the two products are administered in combination, the artesunate is administered first, the ferroquine is administered second, 45 minutes later. On the fourth day, a blood smear is taken from the tail of the mouse. The sample is fixed on a plate. The number of parasitized blood cells is counted under a microscope. The parasitaemia is expressed as percentage of infected erythrocytes present in the sample on a sample of 1000 cells. Six or seven mice are used per dose.
# The IC50 is defined as the concentration in mg/kg/day which inhibits the blood parasitaemia by 50% at the fourth day (D4) after infection (D0) and four days of treatment (D0,D1,D2,D3). 0% inhibition corresponds to the mean of the parasitaemias observed in the untreated infected mice. […]
# The IC50 of ferroquine is determined after administration of concentrations of between 1 and 10 mg/kg/day. […]
smiles,measurement,setting,value
C[C@@H]1CC[C@H]2[C@@H](C)C(OC(=O)CCC(=O)[O-])O[C@@H]3O[C@]4(C)CC[C@@H]1C32OO4.[Na+] (stereo partly drawn) [artesunate],curative dose (first dose at which all the mice of the batch survive),[1],greater than 15 mg/kg/day
same,IC50 (dose which inhibits the blood parasitaemia by 50% at D4),"[2]; 4 days of treatment (D0-D3), parasitaemia at D4, compounds administered separately, linear interpolation of dose-response curve",2.79 mg/kg/day
same,"Parasitaemia (as %), mean","[2]; artesunate 6 mg/kg/day alone (ferroquine 0), 4 days, infected erythrocytes at fourth day after infection",7.1%
